Values of other authors as cited in publication PMC10590117 (International Journal of Nanomedicine, 2023).

Details: humans

In the case of `COc1cc(/C=C/C(=O)CC(=O)/C=C/c2ccc(O)c(OC)c2)ccc1O` [curcumin, Curcumin], the Peroral bioavailability is given as about 1%.
